In ChEMBL document CHEMBL3885861, “Open TG-GATES”:

Species on record: Rattus norvegicus
Test: Open TG-GATES - Regimen: Daily Repeat
Assay type: toxicity, organism-based, Sprague-Dawley
Parameters: regimen Daily Repeat, gender Male, age 6 weeks
Details: in vivo, po, 60 mg/kg, route gavage, dose level Low; for APTT / Bas / Eos / Fbg / Hb / Ht / Lym / MCH / MCHC / MCV / Mono / Neu / PT / Plat / RBC / Ret / WBC: tissue Blood; for KIDNEY_L / KIDNEY_R / KIDNEY_TOTAL: tissue Kidney; for LIVER: tissue Liver; for A/G / ALP / ALT / AST / BUN / CRE / Ca / Cl / DBIL / GLC / IP / K / LDH / Na / PL / RALB / TBIL / TC / TG / TP / gamma-GTP: tissue Plasma

## C[C@](N)(Cc1ccc(O)c(O)c1)C(=O)O [METHYLDOPA]
72 h, time 3 day
  TERMINAL_BW: 205.8 g
  APTT: 17.3 s
  Bas: 0%
  Eos: 1%
  Fbg: 249 mg/dL
  Hb: 13.5 g/dL
  Ht: 39.1%
  Lym: 77.8%
  MCH: 21.6 pg
  MCHC: 34.4%
  MCV: 62.9 fL
  Mono: 2.8%
  Neu: 17.8%
  PT: 12.6 s
  Plat: 102.6 x10_4/uL
  RBC: 623.2 x10_4/ul
  Ret: 7.7%
  WBC: 71 x10_2/uL
  KIDNEY_L: 0.9 g
  KIDNEY_R: 0.9 g
  KIDNEY_TOTAL: 1.8 g
  LIVER: 8.9 g
  A/G: 0.9
  ALP: 1905.6 IU/L
  ALT: 60.6 IU/L
  AST: 79.2 IU/L
  BUN: 13.6 mg/dL
  CRE: 0.2 mg/dL
  Ca: 11.1 mg/dL
  Cl: 106.8 meq/L
  DBIL: 0.01 mg/dL
  GLC: 172.6 mg/dL
  IP: 7.4 mg/dL
  K: 4 meq/L
  LDH: 59.2 IU/L
  Na: 144 meq/L
  PL: 130 mg/dL
  RALB: 2.6 g/dL
  TBIL: 0.064 mg/dL
  TC: 76.8 mg/dL
  TG: 51.8 mg/dL
  TP: 5.4 g/dL
  gamma-GTP: 1 IU/L
[…], time 7 day
  TERMINAL_BW: 237.3 g
  APTT: 16.2 s
  Bas: 0%
  Eos: 1%
  Fbg: 269.2 mg/dL
  Hb: 13.7 g/dL
  Ht: 39.9%
  Lym: 77.8%
  MCH: 21.8 pg
  MCHC: 34.3%
  MCV: 63.4 fL
  Mono: 3.2%
  Neu: 17.6%
  PT: 12.1 s
  Plat: 124.4 x10_4/uL
  RBC: 629 x10_4/ul
  Ret: 5.2%
  WBC: 68.8 x10_2/uL
  KIDNEY_L: 1 g
  KIDNEY_R: 1 g
  KIDNEY_TOTAL: 2 g
  LIVER: 10.4 g
  A/G: 0.9
  ALP: 1395.8 IU/L
  ALT: 43.4 IU/L
  AST: 69.4 IU/L
  BUN: 13.4 mg/dL
  CRE: 0.2 mg/dL
  Ca: 11 mg/dL
  Cl: 106.8 meq/L
  DBIL: 0.008 mg/dL
  GLC: 184 mg/dL
  IP: 7.2 mg/dL
  K: 4.6 meq/L
  LDH: 65.6 IU/L
  Na: 145 meq/L
  PL: 138.8 mg/dL
  RALB: 2.7 g/dL
  TBIL: 0.066 mg/dL
  TC: 87.4 mg/dL
  TG: 51.2 mg/dL
  TP: 5.9 g/dL
  gamma-GTP: 1 IU/L
[…], time 14 day
  TERMINAL_BW: 281.9 g
  APTT: 16.9 s
  Bas: 0%
  Eos: 1%
  Fbg: 302.6 mg/dL
  Hb: 13.8 g/dL
  Ht: 39.6%
  Lym: 80.6%
  MCH: 20.5 pg
  MCHC: 34.9%
  MCV: 59 fL
  Mono: 2.6%
  Neu: 15.4%
  PT: 14 s
  Plat: 109.7 x10_4/uL
  RBC: 672.8 x10_4/ul
  Ret: 4.4%
  WBC: 64.6 x10_2/uL
  KIDNEY_L: 1.1 g
  KIDNEY_R: 1.1 g
  KIDNEY_TOTAL: 2.2 g
  LIVER: 12.2 g
  A/G: 0.9
  ALP: 1372.2 IU/L
  ALT: 40.6 IU/L
  AST: 61.6 IU/L
  BUN: 13.6 mg/dL
  CRE: 0.2 mg/dL
  Ca: 11.3 mg/dL
  Cl: 106.2 meq/L
  DBIL: 0.01 mg/dL
  GLC: 176.8 mg/dL
  IP: 6.6 mg/dL
  K: 4.3 meq/L
  LDH: 53 IU/L
  Na: 142 meq/L
  PL: 155.8 mg/dL
  RALB: 2.8 g/dL
  TBIL: 0.058 mg/dL
  TC: 89 mg/dL
  TG: 85.2 mg/dL
  TP: 5.9 g/dL
  gamma-GTP: 1 IU/L
[…], time 28 day
  TERMINAL_BW: 389.2 g
  APTT: 18.8 s
  Bas: 0%
  Eos: 1.2%
  Fbg: 289 mg/dL
  Hb: 15 g/dL
  Ht: 42.9%
  Lym: 81.2%
  MCH: 19.7 pg
  MCHC: 35%
  MCV: 56.4 fL
  Mono: 2.2%
  Neu: 15%
  PT: 14 s
  Plat: 108.7 x10_4/uL
  RBC: 760.2 x10_4/ul
  Ret: 2.5%
  WBC: 77.4 x10_2/uL
  KIDNEY_L: 1.3 g
  KIDNEY_R: 1.3 g
  KIDNEY_TOTAL: 2.6 g
  LIVER: 15.2 g
  A/G: 0.8
  ALP: 1102.4 IU/L
  ALT: 49.8 IU/L
  AST: 65.6 IU/L
  BUN: 16 mg/dL
  CRE: 0.2 mg/dL
  Ca: 11.1 mg/dL
  Cl: 106.6 meq/L
  DBIL: 0.018 mg/dL
  GLC: 180.2 mg/dL
  IP: 5.8 mg/dL
  K: 4.2 meq/L
  LDH: 47.6 IU/L
  Na: 143.6 meq/L
  PL: 147 mg/dL
  RALB: 2.7 g/dL
  TBIL: 0.058 mg/dL
  TC: 77 mg/dL
  TG: 101.6 mg/dL
  TP: 6.1 g/dL
  gamma-GTP: 1 IU/L
